This is an account of results in patent US9884868B2, “TGF-beta inhibitors” (Rigel Pharmaceuticals, Inc., priority 2015, dated 2018).

Each structure is given as a SMILES string.

HIS-TGF-βR1 T204D, sequence (P36897 34-503 T204D): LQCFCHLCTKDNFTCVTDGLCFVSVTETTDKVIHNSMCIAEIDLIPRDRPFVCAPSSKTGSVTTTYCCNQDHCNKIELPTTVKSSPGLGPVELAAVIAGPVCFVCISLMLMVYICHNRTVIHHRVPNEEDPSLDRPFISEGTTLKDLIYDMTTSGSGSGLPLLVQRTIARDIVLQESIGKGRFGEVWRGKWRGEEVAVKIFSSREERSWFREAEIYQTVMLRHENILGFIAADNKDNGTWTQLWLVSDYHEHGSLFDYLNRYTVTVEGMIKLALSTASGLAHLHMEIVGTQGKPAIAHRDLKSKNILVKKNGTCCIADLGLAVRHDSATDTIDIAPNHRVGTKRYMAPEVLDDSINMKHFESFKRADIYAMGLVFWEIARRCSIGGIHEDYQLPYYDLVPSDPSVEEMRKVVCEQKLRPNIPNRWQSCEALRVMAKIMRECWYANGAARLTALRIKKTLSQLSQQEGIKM

One test addresses HIS-TGF-βR1 T204D (Homo sapiens (Human), UniProt P36897, T204D). Put plainly: HTRF probe displacement assay with HIS-TGF-βR1 T204D.
Conditions: not given
On the technique in general: TR-FRET usually uses a lanthanide donor and a delayed reading to cut background.
By IC50 is commonly meant the concentration that inhibits the measured activity by half. As to `NC(=O)c1cnc2ccc(-c3c(-c4ccc(F)c(Cl)c4)ncn3[C@H]3C[C@@H](O)C3)nn12` [140′, 6-(4-(3-chloro-4-fluorophenyl)-1-((1s,3s)-3-hydroxycyclobutyl)-1H-imidazol-5-yl)imidazo[1,2-b]pyridazine-3-carboxamide], the half-maximal inhibitory concentration (IC50) was found to be 2.8 nM.

The same test, now with this note: read-out: TGFbr1 IC50; HTRF probe displacement, 1 nM HIS-TGF-βR1 T204D, 1 hour at room temperature.
For the compound `N#Cc1cnc2ccc(-c3c(-c4cccc(CO)c4)ncn3CC(F)F)nn12` [256′, 6-(1-(2,2-difluoroethyl)-4-(3-(hydroxymethyl)phenyl)-1H-imidazol-5-yl)imidazo[1,2-b]pyridazine-3-carbonitrile], the IC50 came to 5 nM.
Regarding `FCCCn1cnc(-c2ccc(F)c(Cl)c2)c1-c1ccc2nccn2c1` [183′, 6-(4-(3-chloro-4-fluorophenyl)-1-(3-fluoropropyl)-1H-imidazol-5-yl)imidazo[1,2-a]pyridine], the IC50 came to 21.6 nM.
Same read-out and setting: the value for `C[C@H](O)Cn1cnc(-c2ccc(F)cc2)c1-c1ccc2ncc(C#N)n2c1` [89′, (S)-6-(4-(4-fluorophenyl)-1-(2-hydroxypropyl)-1H-imidazol-5-yl)imidazo[1,2-a]pyridine-3-carbonitrile] was 127 nM.
In the case of `CC(F)(F)Cn1cnc(-c2ccc(F)cc2)c1-c1ccc2ncc(C#N)n2n1` [22′, 6-(1-(2,2-difluoropropyl)-4-(4-fluorophenyl)-1H-imidazol-5-yl)imidazo[1,2-b]pyridazine-3-carbonitrile], the half-inhibitory concentration (IC50) was found to be 1.2 nM.
The same measure, in the same setting: the value for `CCC(CC)n1cnc(-c2ccc(F)cc2)c1-c1ccc2ncc(C#N)n2c1` [74′, 6-(4-(4-fluorophenyl)-1-(pentan-3-yl)-1H-imidazol-5-yl)imidazo[1,2-c]pyridine-3-carbonitrile] was 152 nM.
Still for that read-out and setting: the value for `N#Cc1cnc2ccc(-c3c(-c4ccc(F)cc4)ncn3C3CNC3)nn12` [190C′, 6-(1-(azetidin-3-yl)-4-(4-fluorophenyl)-1H-imidazol-5-yl)imidazo[1,2-b]pyridazin-3-carbonitrile] was 86.2 nM.
In the case of `CNC(=O)c1cnc2ccc(-c3c(-c4ccc(F)cc4)ncn3CC(F)F)nn12` [206′, 6-(1-(2,2-difluoroethyl)-4-(4-fluorophenyl)-1H-imidazol-5-yl)-N-methylimidazo[1,2-b]pyridazine-3-carboxamide], the IC50 was 0.9 nM.
For `CCn1cnc(-c2ccc(F)c(Cl)c2)c1-c1ccc2ncc(C#N)n2n1` [52′, 6-(4-(3-chloro-4-fluorophenyl)-1-ethyl-1H-imidazol-5-yl)imidazo[1,2-b]pyridazine-3-carbonitrile], the concentration for half-maximal inhibition (IC50) was 0.9 nM.
As for `NC(=O)c1cnc2ccc(-c3c(-c4ccc(F)cc4)ncn3CCCF)cn12` [162′, 6-(4-(4-fluorophenyl)-1-(3-fluoropropyl)-1H-imidazol-5-yl)imidazo[1,2-a]pyridine-3-carboxamide], the 50% inhibitory concentration (IC50) is 1.9 nM.
Still for that read-out and setting: the value for `CC(C)(O)Cn1cnc(-c2ccc(F)cc2)c1-c1ccc2ncc(C#N)n2n1` [26′, 6-(4-(4-fluorophenyl)-1-(2-hydroxy-2-methylpropyl)-1H-imidazol-5-yl)imidazo[1,2-b]pyridazine-3-carbonitrile] was 92.6 nM.
For the compound `N#Cc1cnc2ccc(-c3c(-c4ccc(F)c(Cl)c4)ncn3C3CCOC3)nn12` (centres unmarked) [46′, 6-(4-(3-chloro-4-fluorophenyl)-1-(tetrahydrofuran-3-yl)-1H-imidazol-5-yl)imidazo[1,2-b]pyridazine-3-carbonitrile], the IC50 came to 1.5 nM.
As to `CC(C)(O)Cn1cnc(-c2ccc(F)cc2)c1-c1ccc2ncc(C(N)=O)n2c1` [166′, 6-(4-(4-fluorophenyl)-1-(2-hydroxy-2-methylpropyl)-1H-imidazol-5-yl)imidazo[1,2-a]pyridine-3-carboxamide], the IC50 is 9.1 nM.
On to `CC[C@@H](CF)n1cnc(-c2ccc(F)cc2)c1-c1ccc2ncc(C(N)=O)n2n1` [128′, (S)-6-(1-(1-fluorobutan-2-yl)-4-(4-fluorophenyl)-1H-imidazol-5-yl)imidazo[1,2-b]pyridazine-3-carboxamide], for which the concentration for half-maximal inhibition (IC50) was determined as 1.5 nM.
Regarding `NC(=O)c1cnc2ccc(-c3c(-c4ccc(F)c(Cl)c4)ncn3CCO)nn12` [138′, 6-(4-(3-chloro-4-fluorophenyl)-1-(2-hydroxyethyl)-1H-imidazol-5-yl)imidazo[1,2-b]pyridazine-3-carboxamide], the IC50 was determined as 0.7 nM.
For `N#Cc1cnc2ccc(-c3c(-c4ccc(F)c(Cl)c4)ncn3CC(F)F)nn12` [33′, 6-(4-(3-chloro-4-fluorophenyl)-1-(2,2-difluoroethyl)-1H-imidazol-5-yl)imidazo[1,2-b]pyridazine-3-carbonitrile], the half-inhibitory concentration (IC50) stood at 1 nM.
Take `Fc1ccc(-c2ncn(CC(F)F)c2-c2ccc3ncc(-c4cnco4)n3n2)cc1` [Example 216′, 5-(6-(1-(2,2-difluoroethyl)-4-(4-fluorophenyl)-1H-imidazol-5-yl)imidazo[1,2-b]pyridazin-3-yl)oxazole]: the half-inhibitory concentration (IC50) is 0.9 nM.
Regarding `N#Cc1cnc2ccc(-c3c(-c4ccc(F)c(Cl)c4)ncn3C3COC3)cn12` [97′, 6-(4-(3-chloro-4-fluorophenyl)-1-(oxetan-3-yl)-1H-imidazol-5-yl)imidazo[1,2-a]pyridine-3-carbonitrile], the IC50 came out at 140 nM.
Take `N#Cc1cnc2ccc(-c3c(-c4ccc(F)cc4)ncn3CCC(F)F)nn12` [20′, 6-(1-(3,3-difluoropropyl)-4-(4-fluorophenyl)-1H-imidazol-5-yl)imidazo[1,2-b]pyridazine-3-carbonitrile]: the IC50 was 2.2 nM.
As for `COc1ccc(-c2ncn(CC(F)F)c2-c2ccc3ncc(C#N)n3n2)cc1` [242′, 6-(1-(2,2-difluoroethyl)-4-(4-methoxyphenyl)-1H-imidazol-5-yl)imidazo[1,2-b]pyridazine-3-carbonitrile], the IC50 amounted to 5 nM.
In the case of `N#Cc1cnc2ccc(-c3c(-c4ccc(F)cc4)ncn3C3COC3)nn12` [13′, 6-(4-(4-fluorophenyl)-1-(oxetan-3-yl)-1H-imidazol-5-yl)imidazo[1,2-b]pyridazine-3-carbonitrile], the IC50 was 17 nM.
Take `N#Cc1cc(-c2ncn(CC(F)F)c2-c2ccc3ncc(C#N)n3n2)ccc1F` [266′, 6-(4-(3-cyano-4-fluorophenyl)-1-(2,2-difluoroethyl)-1H-imidazol-5-yl)imidazo[1,2-b]pyridazine-3-carbonitrile]: the 50% inhibitory concentration (IC50) is 7.9 nM.
As to `CC1(n2cnc(-c3ccc(F)c(Cl)c3)c2-c2ccc3ncc(C#N)n3n2)CC1` [41′, 6-(4-(3-chloro-4-fluorophenyl)-1-(1-methylcyclopropyl)-1H-imidazol-5-yl)imidazo[1,2-b]pyridazine-3-carbonitrile], the IC50 is 0.9 nM.
Consider `N#Cc1cnc2ccc(-c3c(-c4ccc(F)c(Cl)c4)ncn3CCF)nn12` [34′, 6-(4-(3-chloro-4-fluorophenyl)-1-(2-fluoroethyl)-1H-imidazol-5-yl)imidazo[1,2-b]pyridazine-3-carbonitrile], for which the IC50 was found to be 0.9 nM.
Take `CC(F)(F)Cn1cnc(-c2ccc(F)cc2)c1-c1ccc2ncc(C(N)=O)n2n1` [137′, 6-(1-(2,2-difluoropropyl)-4-(4-fluorophenyl)-1H-imidazol-5-yl)imidazo[1,2-b]pyridazine-3-carboxamide]: the concentration for half-maximal inhibition (IC50) amounted to 0.6 nM.
Take `CC(C)(O)CCn1cnc(-c2ccc(F)c(Cl)c2)c1-c1ccc2ncc(C#N)n2n1` [37′, 6-(4-(3-chloro-4-fluorophenyl)-1-(3-hydroxy-3-methylbutyl)-1H-imidazol-5-yl)imidazo[1,2-b]pyridazine-3-carbonitrile]: the IC50 was 2.5 nM.
